Key:
S. aureus ATCC 25923 = experiment: MIC, broth dilution, S. aureus; type: cell-based; settings: Staphylococcus aureus, ATCC25923, mean (n = 3)
Procedure: (§1) The susceptibility of bacterial strains S. aureus (ATCC 25923), E. coli (ATCC 25922), and P. aeruginosa (ATCC 27853 or PAO1) to antibiotics and compounds was determined using reported protocols. Additional antimicrobial evaluation against MRSA (ATCC 43300), Klebsiella pneumoniae (ATCC 700603), A. baumannii (ATCC 19606), Candida albicans (ATCC 90028), and Cryptococcus neoformans (ATCC 208821) was undertaken at the Community for Open Antimicrobial Drug Discovery at The University of Queensland (Australia) according to their standard protocols as reported previously. […]
(§2) 2.3. Antimicrobial Assays
The susceptibility of bacterial strains S. aureus (ATCC 25923), E. coli (ATCC 25922), and P. aeruginosa (ATCC 27853 or PAO1) to antibiotics and compounds was determined in microplates using the standard broth dilution method in accordance with the recommendations of the Comité de l’AntibioGramme de la Société Française de Microbiologie (CA-SFM). Briefly, the minimal inhibitory concentrations (MICs) were determined with an inoculum of 10^5 CFU in 200 µL of Mueller–Hinton broth (MHB) containing two-fold serial dilutions of each drug. The MIC was defined as the lowest […]
determine all MICs, the measurements were independently repeated in triplicate. Additional antimicrobial evaluation against MRSA (ATCC 43300), Klebsiella pneumoniae (ATCC 700603), A. baumannii (ATCC 19606), Candida albicans (ATCC 90028), and Cryptococcus neoformans (ATCC 208821) was undertaken at the Community for Open Antimicrobial Drug Discovery at The University of Queensland (Australia) according to their standard protocols as reported previously. […]
For C. neoformans, resazurin was added at 0.006% final concentration to each well and incubated for a further 3 h before MICs were determined by measuring […]
(§3) Colistin and vancomycin were used as positive bacterial inhibitor standards for Gram-negative and Gram-positive bacteria, respectively. Fluconazole was used as a positive fungal inhibitor standard for C. albicans and C. neoformans. The antibiotics were provided in […], with 3 above and 3 below its MIC value, and plated into the first 8 wells of column 23 of the 384-well NBS plates. The quality control (QC) of the assays was determined by the antimicrobial controls and the Z'-factor (using positive and negative controls). Each plate was deemed to fulfil the quality criteria (pass QC) if the Z'- […]
(§4) inhibition at their highest concentration, and no growth inhibition at their lowest concentration.
(§5) 2.4. Determination of the MICs of Antibiotics in the Presence of Synergizing Compounds

C. albicans ATCC 90028 = experiment: MIC, CO-ADD antifungal assay, C. albicans; type: cell-based, Candida albicans; settings: Candida albicans, ATCC90028, mean (n = 2)
Procedure: as §1, §2
(§6) The susceptibility of bacterial strains S. aureus (ATCC 25923), E. coli (ATCC 25922), and P. […]
(§7) baumannii (ATCC 19606), Candida albicans (ATCC 90028), and Cryptococcus neoformans (ATCC 208821) was undertaken at the Community for Open Antimicrobial Drug Discovery at The University of Queensland (Australia) according to their standard protocols as reported previously. […]
(§8) For the antifungal assay, fungi strains were cultured for 3 days on YPD agar at 30 °C. A yeast suspension of 1 × 106 to 5 × 10^6 CFU/mL was prepared from five colonies. These stock suspensions were diluted with yeast nitrogen base (YNB) (Becton Dickinson, 233520) broth to a final concentration of 2.5 × 10^3 CFU/mL. The compounds were serially diluted 2-fold across the wells of 96-well plates (Corning 3641, non-binding surface), with compound concentrations ranging from 0.015 to 64 µg/mL and final volumes of 50 µL, plated in duplicate. Then, 50 µL of the fungi suspension that was previously prepared in YNB broth to the final concentration of 2.5 × 10^3 CFU/mL was added to each well of the compound-containing plates, giving a final compound concentration range of 0.008 to 32 µg/mL. Plates were covered and incubated at 35 °C for 36 h without shaking. C. albicans MICs were determined by measuring the absorbance at OD530. For C. neoformans, resazurin was added at 0.006% final concentration to each well and incubated for a further 3 h before MICs were determined by measuring […]
as §3, §4, §5

[1] = system: C. neoformans ATCC 208821; experiment: MIC, CO-ADD antifungal assay, C. neoformans; type: cell-based, Cryptococcus neoformans; settings: Cryptococcus neoformans, ATCC208821, mean (n = 2)
Procedure: as §1, §2, §6, §7, §8, §3, §4, §5

human red blood cells = experiment: Hemolytic assay; type: cell-based; settings: mean (n = 2)
Procedure: Hemolysis assays were conducted using reported protocols (see Supplementary File). […]
Human whole blood was washed three times with three volumes of 0.9% NaCl and then resuspended in the same solution to a concentration of 0.5 x 10^8 cells/mL, as determined by the manual cell count in a Neubauer hemocytometer. The washed cells were then added to the 384-well compound-containing plates for a final volume of 50 µL. After a 10 min shake on a plate shaker, the plates were then incubated for 1 h at 37 °C. After incubation, the plates were centrifuged at 1,000g for 10 min to pellet cells and debris; 25 µL of the supernatant was then transferred to a polystyrene 384-well assay plate. Hemolysis was determined by measuring the supernatant absorbance at […] (OD405). The absorbance was measured using a Tecan M1000 Pro monochromator plate reader. HC10 and HC50 (concentration at 10% and 50% hemolysis, respectively) were calculated by curve fitting the inhibition values vs. log (concentration) using a sigmoidal dose–response function with variable fitting values for the top, bottom, and slope. […]

P. aeruginosa ATCC 27853 = experiment: Antibiotic enhancement of doxycycline; type: cell-based
Procedure: Antibiotic restoring enhancer concentrations were determined using reported protocols (see Supplementary File).
Briefly, restoring enhancer concentrations were determined with an inoculum of 5x10^5 CFU in 200
µL of MHB containing two-fold serial dilutions of each derivative in the presence of doxycycline at 4.5
The lowest concentration of the polyamine
These measurements were independently repeated in triplicate. […]

For `C=C[C@]1(C)C[C@@H](OC(=O)CNCCCNCCCCCCNCCCNCC(=O)O[C@@H]2C[C@@](C)(C=C)[C@@H](O)[C@H](C)[C@]34CCC(=O)[C@H]3[C@@]2(C)[C@H](C)CC4)[C@]2(C)[C@H](C)CC[C@]3(CCC(=O)[C@H]32)[C@@H](C)[C@@H]1O.O=C(O)C(F)(F)F.O=C(O)C(F)(F)F.O=C(O)C(F)(F)F.O=C(O)C(F)(F)F` [Compound 9b, N^1,N^1′-(Hexane-1,6-diyl)bis(N^3-(2-(((3aR,4R,5R,7S,8S,9R,9aS,12R)-8-hydroxy-4,7,9,12-tetramethyl-3-oxo-7-vinyldecahydro-4,9a-propanocyclopenta [8]annulen-5-yl)oxy)-2-oxoethyl)propane-1,3-diaminium) 2,2,2-trifluoroacetate], the MIC (S. aureus ATCC 25923) was 17.8 µM, the MIC (C. albicans ATCC 90028) was > 22.7 µM and the MIC [1] was ≤ 0.18 µM. For the same compound, the “Hemolysis (HC10), concentration of compound at 10% hemolytic activity” value (human red blood cells) was >22.7 µM, the “Dox/P.a.: fold change, ratio between intrinsic MIC of test compound and combination MIC” value (P. aeruginosa ATCC 27853; doxycycline at 4.5 µM) was 4 and the “Dox/P.a.: concentration required to restore doxycycline activity” value (P. aeruginosa ATCC 27853; doxycycline at 4.5 µM (2 µg/mL)) was 35.5 µM.

Source: publication PMC10673369, “Preliminary SAR of Novel Pleuromutilin–Polyamine Conjugates” (Microorganisms, 2023)
